Consider twelve compounds from patent US8951340B2, “Water-insoluble coloring matter compound, ink using the water-insoluble coloring matter compound, thermal transfer recording sheet and resist composition for color filter” (Canon Kabushiki Kaisha, priority 2011, dated 2015).

A short description of data set [1]: Solubility in water of the compound at room temperature and at 60° C. It counts as physicochemical. To be noted: mass percentage. The text has this:
The water-insoluble coloring matter compound represented by the formula (1) according to the present invention has high affinity for an organic solvent. In the present invention, “water-insoluble” means that solubility in water is less than 1% in terms of mass percentage.

The nature of data set [2]: Evaluation of solubility of compound for solvent (30 mg in 0.7 mL, visually observed). It counts as physicochemical. The settings on record: organic solvent or mixture, thermodynamic from solid, room temperature, visual. How it is done:
30 mg of each of water-insoluble coloring matter compounds (1), (4), (6), (8) to (10), (14), (15), (20), and (21) and comparative compounds (1) to (3) was dissolved at room temperature in 0.7 mL of toluene, 0.7 mL of methanol, 0.7 mL of ethyl acetate, and 0.7 mL of chloroform, respectively. These solutions were visually observed, and the solubility of the compound for the solvent was evaluated.
A: completely dissolved (solubility is very good)
B: slightly suspended (solubility is good)
C: not dissolved at all (solubility is bad)

Where [3] appears, read: 30 mg in 0.7 mL chloroform, read-out: Solubility Chloroform.
[4] abbreviates: 30 mg in 0.7 mL ethyl acetate, read-out: Solubility Ethyl acetate.
Where [5] appears, read: 30 mg in 0.7 mL methanol, read-out: Solubility Methanol.
Where [6] appears, read: 30 mg in 0.7 mL toluene, read-out: Solubility Toluene.

Structures are written as SMILES. Like-named read-outs stand apart in the source and are kept apart here.

On to `CCCCC(CC)Cn1c(=O)c(C(=O)c2ccccc2)c2c3c(c(NC4CCCCC4)ccc31)C(=O)c1ccccc1-2` (stereo not drawn) [Compound (15)], for which the solubility in water entry in data set [1] (60° C.) and in data set [1] (room temperature) was “less than 1%” throughout.
Take `CCCCC(CC)CNc1ccc2c3c1C(=O)c1ccccc1-c3c(C(=O)c1ccc(OC)cc1)c(=O)n2CCCC` (stereo not drawn) [Compound (6)]: the solubility in water result in data set [1] (60° C.) and in data set [1] (room temperature) was “less than 1%” in each case.
`CCCCOCCCNc1ccc2c3c1C(=O)c1ccccc1-c3c(C(=O)c1ccccc1)c(=O)n2CC(CC)CCCC` (stereo not drawn) [Compound (10)]: the solubility in water entry in data set [1] (60° C.) and in data set [1] (room temperature) was “less than 1%” throughout.
As to `CCCCC(CC)CNc1ccc2c3c1C(=O)c1ccccc1-c3c(C(=O)c1ccccc1)c(=O)n2CCCC` (stereo not drawn) [Compound (4)], the solubility in water entry in data set [1] (60° C.) and in data set [1] (room temperature) was “less than 1%” throughout.
In the case of `Cn1c(=O)cc2c3c(c(Nc4ccccc4)ccc31)C(=O)c1ccccc1-2` [(1)], the solubility in data set [2] (setting [3]), in data set [2] (setting [4]), in data set [2] (setting [5]) and in data set [2] (setting [6]) was less than 42.9 mg/mL each time.
Regarding `CCCCNc1ccc2c3c1C(=O)c1ccccc1-c3c(C(=O)c1ccccc1)c(=O)n2CCCC` [Compound (21)], the solubility in water result in data set [1] (60° C.) and in data set [1] (room temperature) was “less than 1%” each time.
Take `CCCCC(CC)CNc1ccc2c3c1C(=O)c1ccccc1-c3c(C(=O)OCC)c(=O)n2CC(CC)CCCC` (stereo not drawn) [Compound (9)]: the solubility in water entry in data set [1] (60° C.) and in data set [1] (room temperature) was “less than 1%” each time.
As for `CCCCC(CC)CNc1ccc2c3c1C(=O)c1ccccc1-c3c(C(=O)c1ccccc1)c(=O)n2CC(CC)CCCC` (stereo not drawn) [Compound (8)], the solubility in water entry in data set [1] (60° C.) and in data set [1] (room temperature) was “less than 1%” throughout.
As to `Cc1ccc(Nc2ccc3c4c(cc(=O)n3C)-c3ccccc3C(=O)c24)cc1` [(2)], the solubility in data set [2] (setting [3]), in data set [2] (setting [4]), in data set [2] (setting [5]) and in data set [2] (setting [6]) was less than 42.9 mg/mL in each case.
Regarding `CCCCn1c(=O)c(C(=O)c2ccccc2)c2c3c(c(Nc4ccc(C)cc4)ccc31)C(=O)c1ccccc1-2` [(3)], the solubility in data set [2] (setting [3]), in data set [2] (setting [4]), in data set [2] (setting [5]) and in data set [2] (setting [6]) was less than 42.9 mg/mL throughout.
Regarding `CCCCC(CC)CNc1ccc2c3c1C(=O)c1ccccc1-c3c(C(C)=O)c(=O)n2CCCC` (stereo not drawn) [Compound (1)], the solubility in water entry in data set [1] (60° C.) and in data set [1] (room temperature) was “less than 1%” in each case.
As to `CCCCC(CC)CNc1ccc2c3c1C(=O)c1ccccc1-c3c(C(=O)c1ccccc1)c(=O)n2C` (stereo not drawn) [Compound (14)], the solubility in water result in data set [1] (60° C.) and in data set [1] (room temperature) was “less than 1%” throughout.
